Experimental data taken from patent EP2213286A1, “N-(PHENYL OR PYRIDYL)PRENYLAMINE DERIVATIVES FOR THE TREATMENT OF OBESITY, DIABETES AND CARDIOVASCULAR DISEASES” (Zeltia, S.A., priority 2009, dated 2010).

Tested on: adiponectin promoter
Assay: cells
Format: cell-based, human
Settings: for concentration at which the greatest transactivation was achieved: dose-response curve of commercial activator on the target promoter
From the text: The following protocol has been followed for the purpose of analyzing the potential therapeutic activity against obesity, type 2 diabetes mellitus and atherosclerosis (ODA metabolic diseases) of the compounds 1-4: • generating cell lines which have stably integrated human promoters of key genes in the development of ODA diseases; • amplifying the human promoter sequence of the target genes starting from commercial human genomic DNA; • cloning the promoter into a suitable vector which allows knowing the transcriptional activity of the promoter sequence, using the luciferase gene as a reporter gene; • generating stable cell lines for each of the promoters cloned into the reporter vectors; • carrying out the screening test with the compounds of the invention on the stable cell lines; • suitably validating the effect obtained with a certain compound which can modify the transcriptional activity of the promoter.
The selected cell line is C2C12, corresponding to myoblasts from mouse muscle tissue.
The luciferase activity is measured according to the following protocol: • a) 50000 and 1200000 cells/well (and in duplicate) are seeded in a P24 plate. • b) After approximately 24 hours, the medium is removed from the cells and each well is washed with PBS 1x (because DMEM interferes in the measurement of the activity of the reporter gene) • c) 100 µl of luciferase developing reagent are added in each cell (Bright-GloTM Luciferase Assay system- Promega). This reagent carries the reporter gene substrate and luminescence is generated as the product of the enzymatic reaction. The cells which have acquired the reporter gene, and therefore the target promoter, will be luminescent upon being in the presence of said substrate. To record the measurement of luciferase activity, the plate is shaken for 30 seconds right after adding the developing reagent and after 2 minutes, the volume is collected and transferred to a 96-well plate (P96), which can be read in an illuminometer. • d) The suitable luminescence program is selected, such that the reading lasts 5 seconds per well, and the arbitrary luminescence units are recorded for each obtained clone or, in other words, for each stable cell line.
The reaction substrate is photosensitive, therefore it is important to keep the plate in darkness from the time the reagent is added until the luciferase activity is recorded or read in each experiment. Carrying out the screening test: The clones used in the screening are: C2C12 Adipo (adiponectin promoter), C2C12 UCP3 (UCP3 promoter), C2C12 AdR1 (adiponectin receptor 1 promoter) and C2C12 Nmu (neuromedin promoter).
Before any screening experiment, the suitable number of cells for carrying out such experiments must first be provided. To that end, 2 T75 are usually seeded (with approximately 1x10^6 cells in each bottle), such that after four days, the cells have reached confluence and are ready for the screening protocol detailed below to be carried out. • 1. Day 1: 30000 cells per well are seeded in white P96 plates; these plates allow amplifying the luminescence signal and improving the reading. The cells are grown in 100 µl of hygromycin-free medium. • 2. Day 2: 24 hours after the seeding, the cells are stimulated with compounds 1-4. Compounds 1-4 are assayed in duplicate at 1, 5 and 10 µg/ml concentrations, by means of the screening method shown in the following diagram: [formula] ? In the indicated positions, the baseline transcriptional activity of the promoters to be studied is recorded in the presence of the medium in which compounds 1-4 (vehicle) are dissolved. ? In the indicated positions, the transcriptional activity of the promoters to be studied is recorded in the presence of a known commercial activator of the target promoter. […]

[1] = Mus musculus, C2C12, 48 h, read-out: activation ratio

| Structure (SMILES) | fold induction at 0.5 µM [1] | fold induction at 1 µM [1] | fold induction at 5 µM [1] | fold induction at 10 µM [1] | fold induction at 25 µM [1] | fold induction at 50 µM [1] | fold induction at 100 µM [1] | fold induction at 200 µM [1] | fold induction at 0.01 µM [1] | fold induction at 15 µM [1] | fold induction at 400 µM [1] | fold induction at 20 µM [1] | concentration at which the greatest transactivation was achieved |
| --- | --- | --- | --- | --- | --- | --- | --- | --- | --- | --- | --- | --- | --- |
| COC(=O)c1ccnc(NCC=C(C)CCC=C(C)C)c1 [Compound 1, 2-(3,7-dimethyl-octa-2,6-dienylamino)-isonicotinic acid methyl ester] | 1.67 | 2.02 | 3.33 | 4.07 | 4.05 | 3.92 | 3.06 | 2.57 |  |  |  |  |  |
| CC(C)=CCNc1cccc(C(=O)O)c1 [Compound 2, 3-(3-methyl-but-2-enylamino)-benzoic acid] |  | 1.69 | 2.78 |  | 3.57 | 3.66 |  | 3.04 | 1.05 | 3.43 | 1.81 |  |  |
| COC(=O)c1cccc(NCC=C(C)C)c1 [Compound 3, 3-(3-methyl-but-2-enylamino)-benzoic acid methyl ester] | 1.07 | 1.26 | 1.98 | 1.85 | 2.46 | 2.61 | 2.34 | 1.92 |  |  |  |  |  |
| COC(=O)c1cccc(NCC=C(C)CCC=C(C)C)c1 [Compound 4, 3-(3,7-dimethyl-octa-2,6-dienylamino)-benzoic acid methyl ester] | 2.32 | 2.59 | 3.53 | 3.71 | 3.47 | 3.28 | 2.53 | 1.78 |  |  |  |  |  |
| O=c1c(-c2ccc(O)cc2)coc2cc(O)ccc12 [Daidzein, daidzein, reference compound] |  | 1.68 | 3.03 | 3.76 |  | 4.05 | 3.71 |  |  |  |  | 4.04 | 20 µM |
| O=c1c(-c2ccc(O)cc2)coc2cc(O)cc(O)c12 [Genistein, genistein, reference compound] |  | 1.47 | 2.25 | 3.59 |  | 1.97 | 1.75 | 1.59 |  |  |  | 3.05 | 20 µM |
| CN(CCOc1ccc(CC2SC(=O)NC2=O)cc1)c1ccccn1 (stereo not drawn) [Rosiglitazone, reference compound] |  |  |  |  |  |  |  |  |  |  |  |  | 20 µM |
